Earlier results as cited in patent US12458589B2, “Implantable polymer depots for the controlled release of therapeutic agents” (Foundry Therapeutics, Inc., priority 2018, dated 2025).
Where two headings read alike, the source gives them in different places.

What was measured:
[1] = not given; remark: listed apart in the source

generally regarded as safe plasma level: 1,000 ng/mL
generally regarded as safe plasma level [1]: 1,000 ng/mL
SMILES: CCCCN1CCCCC1C(=O)Nc1c(C)cccc1C (centres unmarked) [bupivacaine]
